The values below come from PMC6977966, “Inhibition of synucleinopathic seeding by rationally designed inhibitors” (eLife, 2020).

Where two headings read alike, the source gives them in different places. Where a SMILES comes first, the peptide text is derived from it. Where no end group is shown, it is not given here. [ ]: non-standard residue; d: D form. Sar = CNCC(=O)O

One data set concerns the target T1, α-syn fibrils (Homo sapiens, UniProt P37840).
T1 construct: made in house; host or cells: Escherichia coli BL21 (DE3) gold
The data set is described as follows: SPR binding to immobilized sonicated, filtered α-syn fibrils. To be noted: steady-state, 1:1 binding model, read-out: equilibrium dissociation constant Kd, α-syn fibril. The text has this:
Computational modeling predicted that our candidate peptidic inhibitors bind α-syn fibril seeds and prevent their growth and propagation. To obtain direct evidence of binding of our inhibitors to α-syn fibril seeds, we used surface plasmon resonance (SPR) (Figure 2A). For the SPR experiments, α-syn fibrils were immobilized on a CM5 sensor chip using standard amine coupling chemistry. For immobilization, mature α-syn fibrils were sonicated to form short fragments (Figure 2—figure supplement 1A) and then filtered through a 0.22-micron filter to remove large aggregates, retaining short fibrils (Figure 2—figure supplement 1A). We confirmed that short fibrils generated by sonication retain the ability to seed monomeric α-syn using an in vitro-seeded-aggregation assay. […] We then immobilized the sonicated and filtered α-syn fibrils on a CM5 SPR chip and measured affinities of our peptide inhibitors to the fibrils. […] The equilibrium dissociation constant (Kd) was calculated by steady-state analysis, fitting the data with 1:1 binding model (Figure 2B). […]
Figure 2. […] (B) The equilibrium dissociation constant (Kd) was calculated by fitting the plot of steady-state inhibitor binding levels (SPR signal at steady-state) against inhibitor concentration with 1:1 binding model. […]
A general note: In SPR one partner is held on a chip, and binding of the other changes the refractive index at the surface.

The target in a further data set is T2, monomeric α-syn (Homo sapiens, UniProt P37840).
T2 construct: prevent aggregation of full-length α-syn in vitro; made in house; host or cells: Escherichia coli BL21 (DE3) gold
The experiment in a line: SPR binding to immobilized α-syn monomers. Conditions: Biacore T200, CM5 chip amine coupling, inhibitor 0.5–500 μM, 30 μl/min, PBS pH 7.4, 25°C, steady-state, 1:1 binding model, mean ± SD, performed thrice, read-out: dissociation constant Kd, α-syn monomer.

The conditions of data set [1]: ref Rodriguez et al., 2015; cited from earlier work. The text has this:
Based on the atomic structure of NACore [68-GAVVTGVTAVA-78] as a template, we applied computational and structure-based approaches to design peptidic inhibitors. […] The inhibitors were designed using Rosetta-based computational modeling to bind to the tip of the steric-zipper protofilament, thereby capping the fibrils (Figure 1A). We identified four candidates; S37, S61, S62 and S71 that are computed to bind favo ...

On to `CC(C)[C@H](NC(=O)CN(C)C(=O)[C@@H](NC(=O)[C@@H](NC(=O)[C@@H](NC(=O)[C@H](C)NC(=O)[C@H](CCCNC(=N)N)NC(=O)[C@H](CCCNC(=N)N)NC(=O)[C@H](CCCNC(=N)N)NC(=O)[C@H](CCC(N)=O)NC(=O)[C@H](CCCNC(=N)N)NC(=O)[C@H](CCCNC(=N)N)NC(=O)[C@H](CCCCN)NC(=O)[C@H](CCCCN)NC(=O)[C@H](CCCNC(=N)N)NC(=O)CNC(=O)[C@@H](N)Cc1ccc(O)cc1)C(C)C)C(C)C)[C@@H](C)O)C(=O)N[C@H](C(=O)N[C@@H](C)C(=O)N[C@H](C(=O)N[C@@H](C)C(=O)N[C@@H](CCC(=O)O)C(=O)O)C(C)C)[C@@H](C)O` [S71] (H-YGRKKRRQRRRAVVT[Sar]VTAVAE-OH), for which the dissociation constant (Kd) (as a rule, the free concentration of one partner at which half of the binding sites on the other are occupied at equilibrium, for simple one-to-one binding) on α-syn fibrils (Biacore T200, CM5 chip amine coupling, inhibitor 0.5–500 μM, 30 μl/min, PBS pH 7.4, 25°C, mean ± SD, performed thrice) is 10.9 ± 0.11 µM; on monomeric α-syn, 116 ± 11.7 µM.

In the case of “AVVTGVTAV [69-AVVTGVTAV-77, smaller 9-residue segment within NACore]”, the “aggregation rate relative to NACore” value in data set [1] is “aggregates slower than NACore”.

Take GAVVWGVTAVGRKKRRQRRRPQ [S61]: the equilibrium dissociation constant (Kd) at α-syn fibrils came to 9.28 µM; at monomeric α-syn, 62.8 ± 11.7 µM.
